{"source": "paper PMC7286885", "about": "“An iron (II) dependent oxygenase performs the last missing step of plant lysine catabolism” (Nature Communications, 2020)", "key": {"YdcJ": {"target": "T1, YdcJ (Escherichia coli, UniProt P76097)", "T1 construct": "recombinant in E. coli BL21 (DE3), Ni-NTA purified", "T1 sequence (P76097 1-447)": "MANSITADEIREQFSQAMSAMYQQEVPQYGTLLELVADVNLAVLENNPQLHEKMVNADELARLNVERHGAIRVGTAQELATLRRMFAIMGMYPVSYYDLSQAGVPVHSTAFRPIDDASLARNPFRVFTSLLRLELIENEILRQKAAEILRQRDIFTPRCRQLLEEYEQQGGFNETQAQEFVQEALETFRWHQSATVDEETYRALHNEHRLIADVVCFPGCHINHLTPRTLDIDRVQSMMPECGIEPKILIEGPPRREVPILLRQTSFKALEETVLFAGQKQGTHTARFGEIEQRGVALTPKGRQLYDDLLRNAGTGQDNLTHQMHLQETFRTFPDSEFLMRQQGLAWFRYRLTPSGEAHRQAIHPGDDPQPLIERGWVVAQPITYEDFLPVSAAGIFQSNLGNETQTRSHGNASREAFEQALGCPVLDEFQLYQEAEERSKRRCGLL", "assay": "in vitro assay, product by high resolution LC-MS", "assay_type": "biochemical", "settings": "conversion to 2-hydroxyglutarate"}, "AT1G07040": {"target": "T2, AT1G07040 (Arabidopsis thaliana, UniProt Q9LMJ7)", "T2 construct": "amplified from Arabidopsis cDNA, expressed in E. coli BL21 (DE3), Ni-NTA purified", "T2 sequence (Q9LMJ7 51-371)": "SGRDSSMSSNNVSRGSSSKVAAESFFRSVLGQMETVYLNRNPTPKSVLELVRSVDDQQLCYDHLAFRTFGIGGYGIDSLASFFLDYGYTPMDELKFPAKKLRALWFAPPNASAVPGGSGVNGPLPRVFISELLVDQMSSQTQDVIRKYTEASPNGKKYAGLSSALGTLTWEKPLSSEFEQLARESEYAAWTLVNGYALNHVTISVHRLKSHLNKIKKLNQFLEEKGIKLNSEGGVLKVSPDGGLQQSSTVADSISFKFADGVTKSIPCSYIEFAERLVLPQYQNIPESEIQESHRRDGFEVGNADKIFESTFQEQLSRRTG", "assay": "in vitro assay, product by high resolution LC-MS", "assay_type": "biochemical", "settings": "conversion to 2-hydroxyglutarate; N-terminal localization peptide removed"}, "FLO7": {"target": "T3, FLO7 (Oryza sativa, UniProt Q337M4)", "T3 construct": "E. coli codon-optimized gene, expressed in E. coli BL21 (DE3), Ni-NTA purified", "T3 sequence (Q337M4 48-364 limits assumed)": "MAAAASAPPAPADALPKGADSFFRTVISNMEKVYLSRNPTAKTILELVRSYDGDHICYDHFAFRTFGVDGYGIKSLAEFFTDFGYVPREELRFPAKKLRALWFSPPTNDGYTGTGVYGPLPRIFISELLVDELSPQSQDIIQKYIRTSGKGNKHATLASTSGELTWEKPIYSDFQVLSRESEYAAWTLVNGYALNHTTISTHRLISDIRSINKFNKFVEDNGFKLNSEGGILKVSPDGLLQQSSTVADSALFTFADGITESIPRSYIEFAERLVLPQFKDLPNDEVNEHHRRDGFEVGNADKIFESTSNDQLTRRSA", "assay": "X-ray crystal structure at […] Å, soaked crystals", "assay_type": "binding", "settings": "active-site Ni(II); Arg64 binds the substrate"}, "HglS": {"target": "T4, HglS (Pseudomonas putida, UniProt Q88CC1)", "T4 construct": "recombinant in E. coli BL21 (DE3), Ni-NTA purified; crystals contain mainly active-site Ni(II); activity with Fe(II)", "T4 sequence (Q88CC1 1-464)": "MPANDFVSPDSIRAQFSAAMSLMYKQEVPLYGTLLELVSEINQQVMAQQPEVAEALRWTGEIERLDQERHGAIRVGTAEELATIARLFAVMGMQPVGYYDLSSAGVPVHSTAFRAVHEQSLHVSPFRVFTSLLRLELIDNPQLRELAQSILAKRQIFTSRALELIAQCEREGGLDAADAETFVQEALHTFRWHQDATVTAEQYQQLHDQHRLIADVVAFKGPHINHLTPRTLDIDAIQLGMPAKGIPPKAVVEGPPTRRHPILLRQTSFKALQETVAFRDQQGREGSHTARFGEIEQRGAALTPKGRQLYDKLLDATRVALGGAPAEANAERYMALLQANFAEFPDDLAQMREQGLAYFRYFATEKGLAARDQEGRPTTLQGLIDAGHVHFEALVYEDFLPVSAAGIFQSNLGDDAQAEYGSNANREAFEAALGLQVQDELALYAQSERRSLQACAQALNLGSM", "assay": "X-ray crystal structure, soaked crystals", "assay_type": "binding", "settings": "active-site Ni(II) (noncatalytic); 2OA carboxylate and alpha-keto group coordinate the metal, Arg74 salt bridge"}, "[1]": {"substrate": "O=C(O)CCCC(=O)C(=O)O", "assay": "initial rates of O2 consumption, Clark-type electrode", "assay_type": "biochemical, Pseudomonas putida", "settings": "10 µM FeSO4, 100 mM Tris pH 7.0, room temperature, 240 µM O2, 10-200 µM 2OA, 100 nM enzyme", "text": "initial rates of O2 consumption, Clark-type electrode on HglS | kinetic parameters determined by monitoring oxygen consumption were similar to those we previously reported"}, "[2]": {"substrate": "O=C(O)CCCC(=O)C(=O)O", "assay": "steady-state kinetics of purified enzyme", "assay_type": "biochemical, Oryza sativa", "settings": "Fe(II)- and O2-dependent; N-terminal localization peptide removed"}}}
{"molecule": "O=C(O)CCCC(=O)C(=O)O", "note": "[2OA, 2-oxoadipate]", "values": [{"measurement": "in vitro assay, product by high resolution LC-MS", "setting": "YdcJ", "result": "the E. coli homolog YdcJ and the plant homologs AT1G07040 and FLO7 catalyzed the conversion"}, {"measurement": "in vitro assay, product by high resolution LC-MS", "setting": "AT1G07040", "result": "plant homologs AT1G07040 and FLO7 catalyzed the conversion of 2OA"}, {"measurement": "X-ray crystal structure at 1.85 Å, soaked crystals", "setting": "FLO7", "result": "soaked with 2OA, producing diffraction data used to solve the substrate-bound crystal structure"}, {"measurement": "X-ray crystal structure, soaked crystals", "setting": "HglS", "result": "soaked HglS crystals with 2OA and solved the structure of the resulting complex"}]}
{"molecule": "HglS (Pseudomonas putida KT2440) (protein, recombinant in E. coli BL21 (DE3), Ni-NTA purified; crystals contain mainly active-site Ni(II); activity with Fe(II)) MPANDFVSPDSIRAQFSAAMSLMYKQEVPLYGTLLELVSEINQQVMAQQPEVAEALRWTGEIERLDQERHGAIRVGTAEELATIARLFAVMGMQPVGYYDLSSAGVPVHSTAFRAVHEQSLHVSPFRVFTSLLRLELIDNPQLRELAQSILAKRQIFTSRALELIAQCEREGGLDAADAETFVQEALHTFRWHQDATVTAEQYQQLHDQHRLIADVVAFKGPHINHLTPRTLDIDAIQLGMPAKGIPPKAVVEGPPTRRHPILLRQTSFKALQETVAFRDQQGREGSHTARFGEIEQRGAALTPKGRQLYDKLLDATRVALGGAPAEANAERYMALLQANFAEFPDDLAQMREQGLAYFRYFATEKGLAARDQEGRPTTLQGLIDAGHVHFEALVYEDFLPVSAAGIFQSNLGDDAQAEYGSNANREAFEAALGLQVQDELALYAQSERRSLQACAQALNLGSM", "values": [{"measurement": "Km", "setting": "[1]", "result": 10, "unit": "µM"}]}
{"molecule": "FLO7 (Oryza sativa Japonica Group) (protein, E. coli codon-optimized gene, expressed in E. coli BL21 (DE3), Ni-NTA purified) MAAAASAPPAPADALPKGADSFFRTVISNMEKVYLSRNPTAKTILELVRSYDGDHICYDHFAFRTFGVDGYGIKSLAEFFTDFGYVPREELRFPAKKLRALWFSPPTNDGYTGTGVYGPLPRIFISELLVDELSPQSQDIIQKYIRTSGKGNKHATLASTSGELTWEKPIYSDFQVLSRESEYAAWTLVNGYALNHTTISTHRLISDIRSINKFNKFVEDNGFKLNSEGGILKVSPDGLLQQSSTVADSALFTFADGITESIPRSYIEFAERLVLPQFKDLPNDEVNEHHRRDGFEVGNADKIFESTSNDQLTRRSA", "values": [{"measurement": "Km", "setting": "[2]", "result": 550, "unit": "µM"}]}
